# Results taken from publication PMC3241878 (ACS chemical biology, 2011).
# Target: Siderocalin (Scn; a.k.a. Lcn2, Ngal, 24p3) (Homo sapiens, UniProt P80188)
# Test: intrinsic fluorescence quenching titration
# Format: binding
# Details: pH 7.4, TBS, 5% DMSO, 32 μg/mL ubiquitin, 100 nM protein; ferric complex
# Sequence of Siderocalin (Scn; a.k.a. Lcn2, Ngal, 24p3) (P80188 21-198): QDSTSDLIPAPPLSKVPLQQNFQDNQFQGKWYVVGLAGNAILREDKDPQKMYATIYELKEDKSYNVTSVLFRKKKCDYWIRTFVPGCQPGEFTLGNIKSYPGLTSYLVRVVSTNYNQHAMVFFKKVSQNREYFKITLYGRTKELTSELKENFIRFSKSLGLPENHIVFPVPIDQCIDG
Substance,Kd (μM),Kd [µM]
Fe^IIICMB-7 [n = 7],0.128 ± 1.0×10^−3 μM,
Fe^IIICMB-5 [n = 5],1.10 ± 2.6×10^−2 μM,
Fe^IIICMB (n = 3),,> 9
Fe^IIICMB-6 [n = 6],0.654 ± 2.2×10^−2 μM,
Fe^IIICMB (n = 4),2.36 ± 9.0×10^−3 μM,
